Data: patent publication US20210205413A1 (Nektar Therapeutics, priority 2018, published 2021)
Entries after “also recorded” stand apart in the source; their conditions may differ.

Experiments:
Tregs = experiment: Single-dose study in cynomologous monkey: Tregs in blood by flow cytometry; type: in vivo
Experimental: A series of blood samples are taken from each animal before treatment (day −6 and −1) and at multiple intervals following treatment for assessment by flow cytometry of Treg cell numbers and activation state.
For immunophenotyping analysis, blood samples (approximately 1.0 mL) are collected from each monkey at the following time points: Pre-treatment (Day −6 and −1), Day 2, Day 3, Day 4, Day 5, Day 6, Day 7, Day 10, Day 14, and Day 21 post treatment. Venipuncture samples are collected into tubes containing the anticoagulant, K2EDTA. Tubes are placed on wet ice pending transfer. The whole blood samples are analyzed by flow cytometry using the following panels, and the samples are analyzed for the following: • T cell panel: CD45/CD3/CD4/CD8/ICOS • TB/NK panel: CD45/CD3/CD16/CD20 • pSTAT5 panel: CD3/CD4/CD8/CD25/CD127/pSTAT5 • Treg panel 1: CD3/CD4/CD8/CD25/FoxP3/Ki67 • Treg panel 2: CD3/CD4/CD8/CD25/FoxP3/Helios Computerized systems can be used for the conduct of the study, for example flow cytometry data acquisition can use BD FACSCanto II/FACSDiva LEGENDPlex Data Analysis Software, and flow cytometry data analysis can use De Novo FCS Express software.
Values from male and female are averaged, and the magnitude of change is shown relative to d-1 values, marked by the dotted line.

cGVHD model = experiment: cGVHD model, repeat administration; type: in vivo
[1] = system: Balb/c mice (KLH DTH model); experiment: Mouse KLH delayed-type hypersensitivity (DTH) efficacy model, ear swelling; type: in vivo
Experimental: Mice are sensitized subcutaneously in their dorsal area with a 100 μl subcutaneous injection containing 100 μg keyhole limpit hemocyanin (KLH) in an emulsion containing Complete Freund's Adjuvant (CFA) and Incomplete Freund's Adjuvant, at a ratio of 1:1:1 respectively. Five days later, baseline ear thickness is measured prior to challenge with 10 μg of KLH intradermally in the left ear, with the right ear remaining untreated. Ear thickness measurements are measured with calipers at 24, 48, 72 and 96 hours post KLH challenge in all groups. […] A positive control consisting of cyclosporin (10 mg/kg, single dose) was administered on day 0.

CD4 T cells, CD8 T cells = experiment: Single-dose PK/PD study in mice: CD4 and CD8 T cells in blood; type: in vivo, C57BL/6 mice; details: single SC 0.3 mg/kg
Excerpt: (§1) Following administration, blood and spleen samples are collected at days 1-7 and day 10 post administration. More particularly, at each time point, blood and spleen samples are collected; samples are pooled and assessed for pharmacodynamic analysis of drug action on lymphocyte cell populations by flow cytometry (see e.g. Example 5), expressed as a fold change relative to vehicle control. In addition to changes in cell numbers, functional markers and markers of activity are quantified. Finally, plasma drug concentration is also assessed.

NK cells = experiment: Single-dose PK/PD study in mice: NK cells; type: in vivo, C57BL/6 mice; details: single SC 0.3 mg/kg (highest dose), relative to vehicle control
Excerpt: as §1

[2] = Phase I single ascending dose study in healthy volunteers: safety and tolerability; type: in vivo, human; details: single SC doses
Experimental: A double-blind, randomized, placebo-controlled study is conducted to evaluate the safety, tolerability, pharmacokinetics, and pharmacodynamics of single ascending low sub-cutaneous doses of an RUR20kD-IL-2 composition (RUR20kD-IL-2) in healthy volunteers. […] Twelve subjects are randomized to each dose cohort, nine of whom received a single subcutaneous dose of RUR20kD-IL-2 while three received placebo. […] The drug product is supplied in single-use glass vials and stored at 2-8° C. […] Placebo is a commercially available 0.9% sodium chloride solution. A starting dose of 0.3 μg/kg is chosen using the minimally anticipated biological effect level (MABEL) approach and is supported by the no observed adverse effect level (NOAEL) in the most sensitive species from nonclinical toxicology studies.
The primary objective of the study is to evaluate the safety and tolerability of RUR20kD-IL-2 administered as a single subcutaneous dose. […] In a first phase of the study, immune markers are tested pre-dose up to 20 hours post-dose. Specifically, Tregs, CD4^+-T cells, CD8^+-T cells, natural killer (NK) cells, cytokines, soluble CD25, and RNA are tested in RUR20kD-IL-2- and placebo-receiving cohorts. In subsequent phases, the same immune markers are also tested at 4-, 5-, 6-, 7-, 8-, 10-, 12-, 15-, 18-, 20-, 25-, 30-, 40, and 50-days post-dose.

[3] = SC q3d, AUC0-96h of change in ear thickness

(1,3-bis(methoxypoly(ethylene glycol)10kDcarbamoyl)-2-propanoxy)-4-butanamide)interleukin-2) [RUR20kD-IL-2]
day FoxP3 MFI nearly returns to pre-dose levels (Tregs; single SC 25 μg/kg): 14 to 21 days | day by which CD25 MFI returns to near pre-dose levels (Tregs; single SC 25 μg/kg): ≤ 21 days | day of maximum CD25 MFI (Tregs; single SC 25 μg/kg): 6 days | days by which Treg numbers return to near d-1 levels (Tregs; single SC 25 μg/kg): 14 to 21 days | time of maximum FoxP3 MFI (Tregs; single SC 25 μg/kg): 6 days | time of maximum Treg cell numbers (Tregs; single SC 25 μg/kg): seven days following administration | duration of sustained Treg mobilization and activity (Tregs; single administration): over 14 days | Tregs and germinal center B cells in spleen (cGVHD model): increases Tregs and decreases germinal center B cells in spleen | lung dysfunction (cGVHD model): reverses lung dysfunction | ear swelling relative to vehicle control ([1]; SC 0.003-0.3 mg/kg every three days): significant dose-dependent decreases in ear swelling | dose achieving maximal effect [1, 3]: 0.3 mg/kg | minimally effective dose [1, 3]: 0.01 mg/kg | changes to CD4 T cells (CD4 T cells, CD8 T cells): modest | changes to CD8 T cells (CD4 T cells, CD8 T cells): slight decreases | increase in NK cells (NK cells): less than 2 fold | adverse events [2]: primarily limited to mild or moderate (Grade 1 or 2) injection site reactions; also recorded: primarily limited to mild (grade 1) injection site reactions | anti-drug antibodies [2]: no elicitation of anti-drug antibodies; also recorded: none have been detected | dose-limiting toxicities, serious adverse events, deaths, clinically significant abnormalities [2]: No dose-limiting toxicities (DLTs), serious adverse events (SAEs), deaths, or clinically significant abnormalities; also recorded: no dose-limiting toxicities, deaths, or adverse events leading to study discontinuation; also recorded: no dose-limiting toxicities, serious adverse events, deaths, or clinically significant abnormalities in vital signs, electrocardiograms, or laboratory test values
